Broadly, the TGI is the concentration giving total growth inhibition. Read a high TGI as lower sensitivity of the cells. For orientation: GI50 means the concentration giving 50% growth inhibition.

From PubChem BioAssay (NCI) come the findings set out here.

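Cultured in 96-well plates, cells were exposed to test compound for 48 hours across five concentrations. Here, GI50 denotes the concentration required for 50% inhibition of growth. The concentration for full growth arrest is given as TGI.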

Common to all, as to assay: DTP human tumour cell line panel, 48 h
Assay [1] relates to CCRF-CEM leukemia.
Assay [2] deals with IGROV1 ovarian.
Assay [3] concerns NCI-H226 lung.
The subject of assay [4] is NCI-H23 lung.
Assay [5] relates to OVCAR-8 ovarian.
Assay [6] relates to SF-539 CNS.
The test system of assay [7] is SN12C renal.
Assay [8] concerns SW-620 colon.
Assay [9] deals with UACC-62 melanoma.

As to `O=C(/C(=C/c1ccccc1)c1ccccc1)N1c2ccccc2CC1c1c[nH]c2ccccc12` (stereo not drawn), the TGI in [1], in assay [2], in assay [3], in [4], in [5] and in [6] was more than 100 µM throughout. Also, the TGI in [7], in assay [8] and in assay [9] was more than 100 µM throughout.
With `COc1ccc2c(c1)OCCC1=C2SCC2(C)CCN=C12` (stereo not drawn), the TGI in assay [1], in assay [2], in [3], in assay [4], in [5] and in assay [6] was more than 100 µM in each case. In addition, the TGI in assay [7], in [8] and in [9] was more than 100 µM each time.
Regarding `C#CCN(C)C(=O)N(CC#C)N=O`, the TGI in assay [1], in assay [2], in assay [4], in [5], in [6] and in assay [7] was more than 100 µM each time. The concentration for total growth inhibition (TGI) in assay [8] and in assay [9] was more than 100 µM each time.
For `CN(C)CCNc1nc(-c2cccs2)cc(-c2cccs2)n1`, the TGI in [1] turned out to be 24.1 µM; in assay [2] it was 69.2 µM; in assay [3], 30.5 µM; in assay [4] it was 25.7 µM; in assay [5], 21.7 µM; in assay [6], 28.5 µM. Also, the TGI is 27.4 µM in assay [7], 29.1 µM in assay [8] and 37.4 µM in assay [9].
Consider `NS(=O)(=O)c1ccc(NC(=O)COC(=O)c2cccc3c(=O)c4ccccc4[nH]c23)cc1`, for which the TGI was more than 89.5 µM in assay [1]; 61.5 µM in assay [2]; 61.1 µM in assay [3]; 60.5 µM in assay [4]; 65.8 µM in assay [5]; 32.7 µM in assay [6]. Moreover, the values for the TGI in assay [7], in assay [8] and in [9] were 90 µM, more than 100 µM and 34.7 µM, respectively.
In the case of `COc1ccc2nc3cccc(C(=O)NCCN(C)C)c3nc2c1`, the TGI in [2] was more than 48.2 µM; in assay [3], 3.85 µM; in assay [4], 3.41 µM; in [6], 8.8 µM; in assay [7] it was 4.93 µM.
Turning to `C[n+]1c(N)n(C(=O)OCc2ccccc2)c(=O)c2c1ncn2C(=O)OCc1ccccc1`, the TGI was more than 100 µM in [1]; more than 100 µM in assay [2]; 59.8 µM in [3]; more than 100 µM in assay [4]; more than 100 µM in assay [5]; more than 100 µM in assay [7]. Moreover, the TGI in assay [8] and in assay [9] was more than 100 µM in each case.
As to `NCP(=O)(O)OCC(=O)O`, the TGI in assay [1], in assay [2], in assay [4], in assay [5], in assay [6] and in assay [7] was more than 100 µM each time. Besides, the TGI in assay [8] and in assay [9] was more than 100 µM each time.
As for `Cn1cc(NC(=O)c2cc(NC(=O)CCCCCCC(=O)Nc3cc(C(=O)Nc4cc(C(=O)NCCC(=N)N)n(C)c4)n(C)c3)cn2C)cc1C(=O)NCCC(=N)N`, the TGI in assay [1] was more than 100 µM; in assay [2], 12.8 µM; in assay [4], 15.3 µM; in assay [5] it was 43.2 µM; in assay [6] it was 31 µM; in [7] it was 33.1 µM. Also, the TGI was more than 100 µM in assay [8] and 20.8 µM in assay [9].
For the molecule `Nc1ccc(C(=O)N/C(=C\c2cccc([N+](=O)[O-])c2)c2nc3c4c(ccc3[nH]2)C(=O)c2ccccc2C4=O)cc1`, the TGI in assay [1], in assay [2], in assay [4], in [5], in assay [6] and in assay [7] was more than 100 µM each time. The TGI in [8] and in [9] was more than 100 µM in each case.
For the molecule `C1C[OH+]CC[OH+]CC[OH+]CC[OH+]CC[OH+]CC[OH+]1.[Cl-].[Nb+5]`, the GI50 in assay [2], in [3], in assay [4], in [5], in assay [6] and in assay [7] was more than 100 µM throughout. Moreover, the GI50 in [8] and in [9] was more than 100 µM throughout. Further, the TGI in [2], in assay [3], in [4], in [5], in assay [6] and in [7] was more than 100 µM throughout. The TGI in assay [8] and in assay [9] was more than 100 µM throughout.
Take `OCC(O)C(OC1OC(CO)C(O)C(O)C1O)c1nn(-c2ccccc2)c2nc3cc(Cl)ccc3nc12` (stereo not drawn): the TGI in assay [1], in assay [4], in assay [5], in assay [6], in assay [7] and in assay [9] was more than 100 µM in each case.
